{"source": "patent US12479866B2", "about": "“Boron-containing rho kinase inhibitors” (Percipiad, Inc., priority 2019, dated 2025)", "key": {"FGFR1": {"target": "FGFR1 (Homo sapiens (Human), UniProt P11362)", "sequence (P11362 22-822)": "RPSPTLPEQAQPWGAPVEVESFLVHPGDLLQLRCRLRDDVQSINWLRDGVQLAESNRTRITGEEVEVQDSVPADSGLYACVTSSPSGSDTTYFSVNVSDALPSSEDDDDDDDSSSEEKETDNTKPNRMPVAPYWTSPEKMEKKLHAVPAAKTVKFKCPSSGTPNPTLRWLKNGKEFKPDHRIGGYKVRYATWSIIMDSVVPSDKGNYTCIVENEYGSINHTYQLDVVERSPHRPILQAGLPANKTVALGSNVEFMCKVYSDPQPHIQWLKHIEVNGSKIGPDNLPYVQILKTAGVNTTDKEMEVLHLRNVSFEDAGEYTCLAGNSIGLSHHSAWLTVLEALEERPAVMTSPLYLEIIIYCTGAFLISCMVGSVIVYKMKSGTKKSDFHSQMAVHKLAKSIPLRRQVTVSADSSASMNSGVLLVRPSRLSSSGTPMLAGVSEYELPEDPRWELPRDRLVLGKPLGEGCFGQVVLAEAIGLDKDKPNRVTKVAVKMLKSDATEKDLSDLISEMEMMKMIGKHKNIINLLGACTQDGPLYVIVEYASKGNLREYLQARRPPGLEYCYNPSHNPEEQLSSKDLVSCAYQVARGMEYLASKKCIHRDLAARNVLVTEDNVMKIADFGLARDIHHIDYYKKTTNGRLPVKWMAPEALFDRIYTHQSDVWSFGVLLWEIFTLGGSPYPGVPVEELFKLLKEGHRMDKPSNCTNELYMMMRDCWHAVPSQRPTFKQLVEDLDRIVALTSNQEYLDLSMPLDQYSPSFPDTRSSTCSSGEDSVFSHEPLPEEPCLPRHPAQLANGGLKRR", "assay": "Kinase Selectivity Profiling General Panel (ADP-Glo)", "assay_type": "biochemical", "conditions": "1 μM compound, read-out: Percent enzyme activity inhibition, FGFR1", "method": "(§1) After this incubation, 5 μl of ADP-Glo™ reagent was added to 5 μl reaction and incubated for 40 minutes. Then, 10 μl of Kinase Detection Reagent added to all assay wells in the assay plate and incubated at room temperature for 30 minutes. […]"}, "GSK3b": {"target": "GSK3b (Homo sapiens (Human), UniProt P49841)", "assay": "Kinase Selectivity Profiling General Panel (ADP-Glo)", "assay_type": "biochemical", "conditions": "1 μM compound, read-out: Percent enzyme activity inhibition, GSK3b", "method": "as §1"}, "CAMK4": {"target": "CAMK4 (Homo sapiens (Human), UniProt Q16566)", "assay": "Kinase Selectivity Profiling General Panel (ADP-Glo)", "assay_type": "biochemical", "conditions": "1 μM compound, read-out: Percent enzyme activity inhibition, CAMK4", "method": "as §1"}, "ROCK1": {"target": "ROCK1 (Homo sapiens (Human), UniProt Q13464)", "assay": "Kinase Selectivity Profiling General Panel (ADP-Glo)", "assay_type": "biochemical", "conditions": "1 μM compound, read-out: Percent enzyme activity inhibition, ROCK1", "method": "as §1"}, "IKKb": {"target": "IKKb (Homo sapiens (Human), UniProt O14920)", "assay": "Kinase Selectivity Profiling General Panel (ADP-Glo)", "assay_type": "biochemical", "conditions": "1 μM compound, read-out: Percent enzyme activity inhibition, IKKb", "method": "as §1"}, "MINK1": {"target": "MINK1 (Homo sapiens (Human), UniProt Q8N4C8)", "sequence (Q8N4C8 whole entry)": "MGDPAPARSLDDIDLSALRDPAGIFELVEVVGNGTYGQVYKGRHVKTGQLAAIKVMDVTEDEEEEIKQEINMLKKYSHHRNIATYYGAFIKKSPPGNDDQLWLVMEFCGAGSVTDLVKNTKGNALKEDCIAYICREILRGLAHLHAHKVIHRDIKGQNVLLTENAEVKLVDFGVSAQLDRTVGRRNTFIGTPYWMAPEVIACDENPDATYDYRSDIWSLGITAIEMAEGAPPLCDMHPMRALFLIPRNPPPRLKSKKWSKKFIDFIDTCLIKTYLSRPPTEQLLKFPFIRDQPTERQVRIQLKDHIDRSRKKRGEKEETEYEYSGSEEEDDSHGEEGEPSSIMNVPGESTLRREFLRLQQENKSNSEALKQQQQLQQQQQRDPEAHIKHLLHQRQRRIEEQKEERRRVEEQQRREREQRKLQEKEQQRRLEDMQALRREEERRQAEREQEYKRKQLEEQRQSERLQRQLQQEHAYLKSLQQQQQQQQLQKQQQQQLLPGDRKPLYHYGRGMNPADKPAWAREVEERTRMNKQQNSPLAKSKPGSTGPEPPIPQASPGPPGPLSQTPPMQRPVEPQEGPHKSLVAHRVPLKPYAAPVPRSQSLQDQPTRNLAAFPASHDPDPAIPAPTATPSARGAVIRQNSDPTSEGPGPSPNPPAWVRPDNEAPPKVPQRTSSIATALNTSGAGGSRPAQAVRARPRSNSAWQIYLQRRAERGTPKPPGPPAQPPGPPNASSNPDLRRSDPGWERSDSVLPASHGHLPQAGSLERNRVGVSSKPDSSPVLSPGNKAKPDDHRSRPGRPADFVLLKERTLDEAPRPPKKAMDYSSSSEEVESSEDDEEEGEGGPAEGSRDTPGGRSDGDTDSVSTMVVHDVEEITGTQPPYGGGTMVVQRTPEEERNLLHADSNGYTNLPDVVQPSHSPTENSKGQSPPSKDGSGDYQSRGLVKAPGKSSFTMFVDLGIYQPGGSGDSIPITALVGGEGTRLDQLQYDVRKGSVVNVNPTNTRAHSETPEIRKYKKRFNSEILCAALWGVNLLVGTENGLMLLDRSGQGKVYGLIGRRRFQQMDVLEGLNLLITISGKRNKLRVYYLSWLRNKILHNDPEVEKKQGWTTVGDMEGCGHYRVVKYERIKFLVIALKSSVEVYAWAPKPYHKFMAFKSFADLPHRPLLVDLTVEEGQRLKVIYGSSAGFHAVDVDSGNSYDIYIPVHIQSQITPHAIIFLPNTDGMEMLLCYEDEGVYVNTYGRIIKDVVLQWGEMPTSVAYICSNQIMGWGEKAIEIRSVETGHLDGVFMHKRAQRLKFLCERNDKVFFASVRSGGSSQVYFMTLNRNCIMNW", "assay": "Kinase Selectivity Profiling General Panel (ADP-Glo)", "assay_type": "biochemical", "conditions": "1 μM compound, read-out: Percent enzyme activity inhibition, MINK1", "method": "as §1"}, "AMPKA1/B1/G2": {"target": "AMPKA1/B1/G2 (Homo sapiens (Human), UniProt Q13131)", "sequence (Q13131 whole entry)": "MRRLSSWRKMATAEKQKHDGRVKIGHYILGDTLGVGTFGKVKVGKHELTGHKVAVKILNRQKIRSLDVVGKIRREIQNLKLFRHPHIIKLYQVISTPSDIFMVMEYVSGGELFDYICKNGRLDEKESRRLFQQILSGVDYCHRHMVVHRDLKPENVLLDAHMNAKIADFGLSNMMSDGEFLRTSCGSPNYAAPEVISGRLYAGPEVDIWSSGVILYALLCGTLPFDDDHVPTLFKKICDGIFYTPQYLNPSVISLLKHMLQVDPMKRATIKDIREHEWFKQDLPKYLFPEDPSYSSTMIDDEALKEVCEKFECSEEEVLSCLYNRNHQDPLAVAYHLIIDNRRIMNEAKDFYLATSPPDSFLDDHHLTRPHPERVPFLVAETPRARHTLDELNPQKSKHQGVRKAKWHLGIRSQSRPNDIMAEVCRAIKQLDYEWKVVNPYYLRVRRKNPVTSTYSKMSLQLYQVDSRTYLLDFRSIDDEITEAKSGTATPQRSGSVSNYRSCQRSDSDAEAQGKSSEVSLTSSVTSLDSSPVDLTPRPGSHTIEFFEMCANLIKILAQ", "sequence (Q9Y478 whole entry partner)": "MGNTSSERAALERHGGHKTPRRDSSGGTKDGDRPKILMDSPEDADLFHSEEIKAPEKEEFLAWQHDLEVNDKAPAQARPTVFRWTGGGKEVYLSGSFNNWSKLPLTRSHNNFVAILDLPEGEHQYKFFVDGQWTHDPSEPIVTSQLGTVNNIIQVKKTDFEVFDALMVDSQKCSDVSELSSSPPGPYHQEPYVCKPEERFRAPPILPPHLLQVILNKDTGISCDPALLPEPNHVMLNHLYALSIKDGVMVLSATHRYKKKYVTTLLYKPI", "sequence (Q9UGJ0 whole entry partner)": "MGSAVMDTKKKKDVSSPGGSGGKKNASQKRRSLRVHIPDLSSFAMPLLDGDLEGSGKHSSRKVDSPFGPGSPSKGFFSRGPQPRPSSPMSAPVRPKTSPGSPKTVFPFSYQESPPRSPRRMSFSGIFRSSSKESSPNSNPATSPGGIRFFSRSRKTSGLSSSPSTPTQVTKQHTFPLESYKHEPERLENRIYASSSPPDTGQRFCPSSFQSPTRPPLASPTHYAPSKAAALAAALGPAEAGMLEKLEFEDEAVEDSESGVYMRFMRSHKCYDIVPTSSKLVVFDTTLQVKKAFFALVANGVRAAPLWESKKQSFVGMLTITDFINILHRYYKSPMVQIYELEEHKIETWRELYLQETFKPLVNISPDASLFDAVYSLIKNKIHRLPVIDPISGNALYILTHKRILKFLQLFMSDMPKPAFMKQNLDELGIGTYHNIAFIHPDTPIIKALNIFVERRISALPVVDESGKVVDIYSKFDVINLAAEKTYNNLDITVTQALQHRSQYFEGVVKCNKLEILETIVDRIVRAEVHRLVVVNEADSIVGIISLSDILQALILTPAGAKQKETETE", "assay": "Kinase Selectivity Profiling General Panel (ADP-Glo)", "assay_type": "biochemical", "conditions": "1 μM compound, read-out: Percent enzyme activity inhibition, AMPKA1/B1/G2", "method": "as §1"}, "p38a": {"target": "p38a (Homo sapiens (Human), UniProt Q16539)", "assay": "Kinase Selectivity Profiling General Panel (ADP-Glo)", "assay_type": "biochemical", "conditions": "1 μM compound, read-out: Percent enzyme activity inhibition, p38a", "method": "as §1"}, "SYK": {"target": "SYK (Homo sapiens (Human), UniProt P43405)", "assay": "Kinase Selectivity Profiling General Panel (ADP-Glo)", "assay_type": "biochemical", "conditions": "1 μM compound, read-out: Percent enzyme activity inhibition, SYK", "method": "as §1"}, "PAK1/CDC42": {"target": "PAK1/CDC42 (Homo sapiens (Human), UniProt Q13153)", "assay": "Kinase Selectivity Profiling General Panel (ADP-Glo)", "assay_type": "biochemical", "conditions": "1 μM compound, read-out: Percent enzyme activity inhibition, PAK1/CDC42", "method": "as §1"}, "CK2a1": {"target": "CK2a1 (Homo sapiens (Human), UniProt P68400)", "assay": "Kinase Selectivity Profiling General Panel (ADP-Glo)", "assay_type": "biochemical", "conditions": "1 μM compound, read-out: Percent enzyme activity inhibition, CK2a1", "method": "as §1"}, "Aurora A": {"target": "Aurora A (Homo sapiens (Human), UniProt O14965)", "assay": "Kinase Selectivity Profiling General Panel (ADP-Glo)", "assay_type": "biochemical", "conditions": "1 μM compound, read-out: Percent enzyme activity inhibition, Aurora A", "method": "as §1"}, "LCK": {"target": "LCK (Homo sapiens (Human), UniProt P06239)", "assay": "Kinase Selectivity Profiling General Panel (ADP-Glo)", "assay_type": "biochemical", "conditions": "1 μM compound, read-out: Percent enzyme activity inhibition, LCK", "method": "as §1"}, "CHK1": {"target": "CHK1 (Homo sapiens (Human), UniProt O14757)", "assay": "Kinase Selectivity Profiling General Panel (ADP-Glo)", "assay_type": "biochemical", "conditions": "1 μM compound, read-out: Percent enzyme activity inhibition, CHK1", "method": "as §1"}, "CK1g1": {"target": "CK1g1 (Homo sapiens (Human), UniProt Q9HCP0)", "assay": "Kinase Selectivity Profiling General Panel (ADP-Glo)", "assay_type": "biochemical", "conditions": "1 μM compound, read-out: Percent enzyme activity inhibition, CK1g1", "method": "as §1"}, "IRAK4": {"target": "IRAK4 (Homo sapiens (Human), UniProt Q9NWZ3)", "assay": "Kinase Selectivity Profiling General Panel (ADP-Glo)", "assay_type": "biochemical", "conditions": "1 μM compound, read-out: Percent enzyme activity inhibition, IRAK4", "method": "as §1"}, "PKCa": {"target": "PKCa (Homo sapiens (Human), UniProt P17252)", "assay": "Kinase Selectivity Profiling General Panel (ADP-Glo)", "assay_type": "biochemical", "conditions": "1 μM compound, read-out: Percent enzyme activity inhibition, PKCa", "method": "as §1"}, "DAPK1": {"target": "DAPK1 (Homo sapiens (Human), UniProt P53355)", "assay": "Kinase Selectivity Profiling General Panel (ADP-Glo)", "assay_type": "biochemical", "conditions": "1 μM compound, read-out: Percent enzyme activity inhibition, DAPK1", "method": "as §1"}, "MAPKAPK2": {"target": "MAPKAPK2 (Homo sapiens (Human), UniProt P49137)", "assay": "Kinase Selectivity Profiling General Panel (ADP-Glo)", "assay_type": "biochemical", "conditions": "1 μM compound, read-out: Percent enzyme activity inhibition, MAPKAPK2", "method": "as §1"}, "AKT1": {"target": "AKT1 (Homo sapiens (Human), UniProt P31749)", "assay": "Kinase Selectivity Profiling General Panel (ADP-Glo)", "assay_type": "biochemical", "conditions": "1 μM compound, read-out: Percent enzyme activity inhibition, AKT1", "method": "as §1"}, "CK1a1": {"target": "CK1a1 (Homo sapiens (Human), UniProt P48729)", "assay": "Kinase Selectivity Profiling General Panel (ADP-Glo)", "assay_type": "biochemical", "conditions": "1 μM compound, read-out: Percent enzyme activity inhibition, CK1a1", "method": "as §1"}, "[1]": {"assay": "Solubility Assay #3, qualitative solubility in borate and citrate buffers", "assay_type": "physicochemical", "conditions": "borate and citrate buffers at a series of pH values"}, "ROCK2 [2]": {"target": "T1, ROCK2 (Homo sapiens (Human), UniProt O75116)", "T1 sequence (O75116 whole entry)": "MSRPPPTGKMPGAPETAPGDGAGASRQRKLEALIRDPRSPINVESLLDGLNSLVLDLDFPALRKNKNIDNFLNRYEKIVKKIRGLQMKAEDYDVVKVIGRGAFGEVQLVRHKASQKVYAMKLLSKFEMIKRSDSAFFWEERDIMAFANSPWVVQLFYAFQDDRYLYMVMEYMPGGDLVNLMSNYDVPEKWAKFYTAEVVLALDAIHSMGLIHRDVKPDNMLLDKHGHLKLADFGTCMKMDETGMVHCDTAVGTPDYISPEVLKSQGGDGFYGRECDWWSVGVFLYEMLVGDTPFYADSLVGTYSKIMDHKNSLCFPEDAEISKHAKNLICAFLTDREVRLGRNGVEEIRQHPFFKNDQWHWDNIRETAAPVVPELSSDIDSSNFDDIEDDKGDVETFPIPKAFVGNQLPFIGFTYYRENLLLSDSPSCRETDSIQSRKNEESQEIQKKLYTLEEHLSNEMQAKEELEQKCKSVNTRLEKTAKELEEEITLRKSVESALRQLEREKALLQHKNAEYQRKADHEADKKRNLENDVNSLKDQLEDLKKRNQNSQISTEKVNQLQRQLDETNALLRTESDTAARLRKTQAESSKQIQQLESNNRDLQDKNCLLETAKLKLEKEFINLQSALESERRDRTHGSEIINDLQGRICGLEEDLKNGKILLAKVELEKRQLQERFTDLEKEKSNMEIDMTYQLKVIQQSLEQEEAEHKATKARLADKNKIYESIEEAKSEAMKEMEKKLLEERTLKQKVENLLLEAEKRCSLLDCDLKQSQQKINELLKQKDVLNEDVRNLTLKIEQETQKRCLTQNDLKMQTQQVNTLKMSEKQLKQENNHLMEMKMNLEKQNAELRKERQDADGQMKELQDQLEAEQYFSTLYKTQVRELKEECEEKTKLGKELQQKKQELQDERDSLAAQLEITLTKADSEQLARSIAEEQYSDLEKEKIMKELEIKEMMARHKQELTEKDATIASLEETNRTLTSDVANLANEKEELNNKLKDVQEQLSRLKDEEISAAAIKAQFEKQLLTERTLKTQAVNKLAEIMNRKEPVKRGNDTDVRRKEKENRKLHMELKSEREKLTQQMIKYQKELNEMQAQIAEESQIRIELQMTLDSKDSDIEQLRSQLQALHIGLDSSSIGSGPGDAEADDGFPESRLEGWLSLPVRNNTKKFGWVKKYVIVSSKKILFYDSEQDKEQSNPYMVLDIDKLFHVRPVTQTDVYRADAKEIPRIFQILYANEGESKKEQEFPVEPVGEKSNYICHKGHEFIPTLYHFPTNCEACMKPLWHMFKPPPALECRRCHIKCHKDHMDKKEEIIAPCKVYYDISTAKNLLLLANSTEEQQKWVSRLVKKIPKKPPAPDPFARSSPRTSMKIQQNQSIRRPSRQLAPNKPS", "assay": "Stability in varied buffers and temperatures, measured by ROCK2 inhibition", "assay_type": "physicochemical", "method": "Stability in Varied Buffers and Temperatures. […] (room temperature), 37° C., 4° C., and −20° C. in water, 150 mM NaCl, pH 5 and 6 buffers, or buffers containing 150 mM NaCl. No visible precipitates were observed after storage."}, "[3]": {"conditions": "water, thermodynamic from solid"}, "ROCK2 [4]": {"target": "T1, ROCK2", "assay": "Stability in varied buffers and temperatures, measured by ROCK2 inhibition", "assay_type": "physicochemical", "remark": "listed apart in the source"}}, "note": "Several values for one entry are separate records, joined by “and”; a condition that tells them apart may be missing. Identical values can stand only once.", "data": [{"smiles": "Cl.Cl.NCC(C(=O)Nc1ccc2cnccc2c1)c1ccc(B(O)O)cc1", "note": "(stereo not shown) [Compound 10•2HCl]", "values": [{"measurement": "inhibition at 1 µM", "setting": "FGFR1", "value": 35, "unit": "%"}, {"measurement": "inhibition at 1 µM", "setting": "GSK3b", "value": 0, "unit": "%"}, {"measurement": "inhibition at 1 µM", "setting": "CAMK4", "value": 7, "unit": "%"}, {"measurement": "inhibition at 1 µM", "setting": "ROCK1", "value": 98, "unit": "%"}, {"measurement": "inhibition at 1 µM", "setting": "IKKb", "value": 0, "unit": "%"}, {"measurement": "inhibition at 1 µM", "setting": "MINK1", "value": 3, "unit": "%"}, {"measurement": "inhibition at 1 µM", "setting": "AMPKA1/B1/G2", "value": 58, "unit": "%"}, {"measurement": "inhibition at 1 µM", "setting": "p38a", "value": 0, "unit": "%"}, {"measurement": "inhibition at 1 µM", "setting": "SYK", "value": 2, "unit": "%"}, {"measurement": "inhibition at 1 µM", "setting": "PAK1/CDC42", "value": 0, "unit": "%"}, {"measurement": "inhibition at 1 µM", "setting": "CK2a1", "value": 3, "unit": "%"}, {"measurement": "inhibition at 1 µM", "setting": "Aurora A", "value": 21, "unit": "%"}, {"measurement": "inhibition at 1 µM", "setting": "LCK", "value": 0, "unit": "%"}, {"measurement": "inhibition at 1 µM", "setting": "CHK1", "value": 21, "unit": "%"}, {"measurement": "inhibition at 1 µM", "setting": "CK1g1", "value": 0, "unit": "%"}, {"measurement": "inhibition at 1 µM", "setting": "IRAK4", "value": 0, "unit": "%"}, {"measurement": "inhibition at 1 µM", "setting": "PKCa", "value": 72, "unit": "%"}, {"measurement": "inhibition at 1 µM", "setting": "DAPK1", "value": 20, "unit": "%"}, {"measurement": "inhibition at 1 µM", "setting": "MAPKAPK2", "value": 30, "unit": "%"}, {"measurement": "inhibition at 1 µM", "setting": "AKT1", "value": 55, "unit": "%"}, {"measurement": "inhibition at 1 µM", "setting": "CK1a1", "value": 0, "unit": "%"}, {"measurement": "pH at which precipitation occurs", "setting": "[1]", "value": "~8.5"}, {"measurement": "% ROCK2 inhibition at 20 nM", "setting": "ROCK2 [2]; 25 mM Borate pH 5 (0.5 mg/ml), 15 days at 23° C.", "value": 31, "unit": "%"}, {"measurement": "% ROCK2 inhibition at 20 nM", "setting": "ROCK2 [2]; 25 mM Borate, pH 5 (0.5 mg/ml), 15 days at −20° C.", "value": 32, "unit": "%"}, {"measurement": "% ROCK2 inhibition at 20 nM", "setting": "ROCK2 [2]; 25 mM Borate, pH 5, 150 mM NaCl (0.5 mg/ml), 15 days at 23° C.", "value": 29, "unit": "%"}, {"measurement": "% ROCK2 inhibition at 20 nM", "setting": "ROCK2 [2]; 150 mM NaCl (0.5 mg/ml), 0 days at 23° C.", "value": 35, "unit": "%"}, {"measurement": "% ROCK2 inhibition at 20 nM", "setting": "ROCK2 [2]; 150 mM NaCl (0.5 mg/ml), 15 days at 23° C.", "value": 35, "unit": "%"}, {"measurement": "% ROCK2 inhibition at 20 nM", "setting": "ROCK2 [2]; 150 mM NaCl (2 mg/ml), 120 days at 4° C.", "value": 31, "unit": "%"}, {"measurement": "% ROCK2 inhibition at 20 nM", "setting": "ROCK2 [2]; 150 mM NaCl (2 mg/ml), 120 days at 37° C.", "value": 35, "unit": "%"}, {"measurement": "Stability in solution", "setting": "ROCK2 [2]; 150 mM NaCl, 37° C. and 4° C.", "value": "stable for 4 months"}, {"measurement": "% ROCK2 inhibition at 20 nM", "setting": "ROCK2 [2]; Water (0.5 mg/ml), 15 days at 23° C.", "value": 34, "unit": "%"}, {"measurement": "% ROCK2 inhibition at 20 nM", "setting": "ROCK2 [2]; Water (0.5 mg/ml), 15 days at −20° C.", "value": 33, "unit": "%"}, {"measurement": "solubility", "setting": "[3]", "value": "> 100000 µg/mL and > 234000 µM"}, {"measurement": "% ROCK2 inhibition at 20 nM", "setting": "ROCK2 [4]; 25 mM Borate pH 7 (0.5 mg/ml), 15 days at 23° C.", "value": 36, "unit": "%"}, {"measurement": "% ROCK2 inhibition at 20 nM", "setting": "ROCK2 [4]; 25 mM Borate, pH 7 (0.5 mg/ml), 15 days at −20° C.", "value": 34, "unit": "%"}, {"measurement": "% ROCK2 inhibition at 20 nM", "setting": "ROCK2 [4]; 25 mM Borate, pH 7, 150 mM NaCl (0.5 mg/ml), 15 days at 23° C.", "value": 32, "unit": "%"}, {"measurement": "Stability in solution", "setting": "ROCK2 [4]; pH 5 and 7 buffers, room temperature", "value": "stable in pH 5 and 7 buffers at room temperature for 15 days"}]}]}
